As usually defined, the EC50 is the midpoint of the concentration-response curve.

Experimental findings from patent US11236055B2 (Venenum Biodesign, LLC, priority 2016, dated 2022) are described below.

In one test the target is T1, human TGR5 receptor (Homo sapiens, UniProt Q8TDU6).
T1 construct: host or cells: CHO-K1 (hTGR5-CHO cells)
T1 sequence (Q8TDU6 1-330): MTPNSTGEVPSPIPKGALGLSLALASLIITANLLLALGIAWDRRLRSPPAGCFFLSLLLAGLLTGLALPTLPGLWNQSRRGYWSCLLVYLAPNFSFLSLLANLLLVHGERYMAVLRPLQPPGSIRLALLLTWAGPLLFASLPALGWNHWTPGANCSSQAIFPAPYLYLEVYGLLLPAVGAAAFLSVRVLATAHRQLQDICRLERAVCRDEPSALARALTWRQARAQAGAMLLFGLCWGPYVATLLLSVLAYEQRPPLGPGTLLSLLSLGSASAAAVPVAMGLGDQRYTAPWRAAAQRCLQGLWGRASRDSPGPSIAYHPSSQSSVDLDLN
As to the kind of experiment: Human TGR5 cAMP production assay. Type of test: cell-based. The following applies: human TGR5, luminescent cAMP assay; coded A-D; read-out: Human TGR5 Lum. cAMP Activity (EC50). Summed up:
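Intracellular cAMP read by luminescent enzyme-complementation (XS+) after overnight development, following 1 h room-temperature compound treatment of hTGR5-CHO-K1 cells in IBMX plus anti-cAMP antibody. Compounds tested as half-log dilution series; EC50 derived.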
(cAMP levels reflect the balance of adenylyl cyclase and phosphodiesterase activity.)

The target in another test is T2, mouse TGR5 receptor (Mus musculus, UniProt Q80SS6).
T2 construct: expressed in transfected cells; host or cells: HEK293-EBNA (293 c18, ATCC CRL10852), Hygromycin B selection
T2 sequence (Q80SS6 1-329): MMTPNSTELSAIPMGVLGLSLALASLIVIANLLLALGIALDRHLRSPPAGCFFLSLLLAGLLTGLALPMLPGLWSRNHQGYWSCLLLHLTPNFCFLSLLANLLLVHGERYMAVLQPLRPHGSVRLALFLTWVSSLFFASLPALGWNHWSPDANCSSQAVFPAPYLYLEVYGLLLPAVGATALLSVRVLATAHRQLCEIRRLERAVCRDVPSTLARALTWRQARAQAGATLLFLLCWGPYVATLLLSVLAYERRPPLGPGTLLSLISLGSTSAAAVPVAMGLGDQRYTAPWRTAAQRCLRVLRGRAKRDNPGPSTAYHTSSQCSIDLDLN
As to the kind of experiment: Mouse TGR5 cAMP production assay (HTRF, Cisbio cAMP HiRange). Type of test: cell-based. To be noted: HEK293-EBNA cells overexpressing mouse TGR5, HTRF cAMP HiRange; coded A-D. Summed up: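 cAMP read by HTRF competition after 1 h room-temperature compound exposure of mouse TGR5-overexpressing HEK293-EBNA cells. Cells were suspended in serum-free DMEM containing 500 μM IBMX; compounds ran as 12-point half-log dilutions in duplicate; EC50 derived.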

The structures appear in SMILES notation.

For the compound `Cc1cnccc1-c1cccc([C@H](C)N(CCCC(=O)NCCNC(=O)CS(=O)(=O)O)S(=O)(=O)c2ccccc2C(F)(F)F)c1` [Compound 31AE, (S)-2-((2-(4-(N-(1-(3-(3-methylpyridin-4-yl)phenyl)ethyl)-2-(trifluoromethyl)phenylsulfonamido)butanamido)ethyl)amino)-2-oxoethanesulfonic acid], the EC50 at human TGR5 receptor was less than 100 nM; on mouse TGR5 receptor, 100 to 999 nM.
In the same order, the values of `Cc1cnccc1-c1cccc([C@H](C)N(CCCC(=O)NCCNC(=O)[C@@H](N)CS(=O)(=O)O)S(=O)(=O)c2ccccc2C(F)(F)F)c1` [Compound 31AF, (R)-2-amino-3-((2-(4-(N-((S)-1-(3-(3-methylpyridin-4-yl)phenyl)ethyl)-2-(trifluoromethyl)phenylsulfonamido)butanamido)ethyl)amino)-3-oxopropane-1-sulfonic acid] are less than 100 nM and 100 to 999 nM.
On to `Cc1cnccc1-c1cccc(C(C)N(CCNc2c(NCS(=O)(=O)O)c(=O)c2=O)S(=O)(=O)c2cccc(Cl)c2C)c1` (stereo not shown) [Compound 32, 2-((2-((2-(3-chloro-2-methyl-N-(1-(3-(3-methylpyridin-4-yl)phenyl)ethyl)phenylsulfonamido)ethyl)amino)-3,4-dioxocyclobut-1-en-1-yl)amino)methanesulfonic acid], for which the half-maximal effective concentration (EC50) at human TGR5 receptor and at mouse TGR5 receptor was 1000 to 30000 nM each time.
On to `Cc1cnccc1-c1cccc(C(C)N(CCCNc2c(NCS(=O)(=O)O)c(=O)c2=O)S(=O)(=O)c2cccc(Cl)c2C)c1` (stereo not shown) [Compound 32AA, ((2-((3-(3-chloro-2-methyl-N-(1-(3-(3-methylpyridin-4-yl)phenyl)ethyl)phenylsulfonamido)propyl)amino)-3,4-dioxocyclobut-1-en-1-yl)amino)methanesulfonic acid], for which the concentration giving a half-maximal response (EC50) was less than 100 nM on human TGR5 receptor and 100 to 999 nM at mouse TGR5 receptor.
In the same order, the values of `Cc1cnccc1-c1cccc(C(C)N(CCCNc2c(NCCC(=O)O)c(=O)c2=O)S(=O)(=O)c2cccc(Cl)c2C)c1` (stereo not shown) [Compound 32AB] are 100 to 999 nM and 100 to 999 nM.
In the same order, the values of `Cc1cnccc1-c1cccc([C@H](C)N(CCCCNCCC(=O)O)S(=O)(=O)c2cccc(Cl)c2C)c1` [Compound 33, (S)-3-((4-(3-chloro-2-methyl-N-(1-(3-(3-methylpyridin-4-yl)phenyl)ethyl)phenylsulfonamido)butyl)amino)propanoic acid] are 100 to 999 nM and 100 to 999 nM.
For the compound `CC(=O)N(CCCCN([C@@H](C)c1cccc(-c2ccncc2C)c1)S(=O)(=O)c1cccc(Cl)c1C)CCC(=O)O` [Compound 34, (S)-3-(N-(4-(3-chloro-2-methyl-N-(1-(3-(3-methylpyridin-4-yl)phenyl)ethyl)phenylsulfonamido)butyl)acetamido)propanoic acid], the 50% effective concentration (EC50) on human TGR5 receptor and on mouse TGR5 receptor was 100 to 999 nM throughout.
For the compound `Cc1cnccc1-c1cccc(C(CCCCC#N)NS(=O)(=O)c2cccc(Cl)c2C)c1` (stereo not shown) [Compound 35, 3-chloro-N-(5-cyano-1-(3-(3-methylpyridin-4-yl)phenyl)pentyl)-2-methylbenzenesulfonamide], the EC50 at human TGR5 receptor and at mouse TGR5 receptor was 100 to 999 nM each time.
Consider `Cc1ccc(S(=O)(=O)NC(CCCCC#N)c2cccc(-c3ccncc3C)c2)nc1` (stereo not shown) [Compound 35B, N-(5-cyano-1-(3-(3-methylpyridin-4-yl)phenyl)pentyl)-5-methylpyridine-2-sulfonamide], for which the 50% effective concentration (EC50) at human TGR5 receptor and at mouse TGR5 receptor was 1000 to 30000 nM throughout.
On to `Cc1cnccc1-c1cccc([C@H](C)N(CCCC(=O)NCCS(=O)(=O)NCC(=O)O)S(=O)(=O)c2ccc(F)cc2C(F)(F)F)c1` [Compound 36, (S)-2-(4-(4-fluoro-N-(1-(3-(3-methylpyridin-4-yl)phenyl)ethyl)-2-(trifluoromethyl)phenylsulfonamido)butanamido)ethanesulfonamido acetic acid], for which the half-maximal effective concentration (EC50) on human TGR5 receptor and on mouse TGR5 receptor was less than 100 nM throughout.
Regarding `Cc1cnccc1-c1cccc([C@H](C)N(CCCC(=O)NCCNS(=O)(=O)NOC(C)(C)C)S(=O)(=O)c2cccc(Cl)c2C)c1` [Compound 37A], the EC50 at human TGR5 receptor and at mouse TGR5 receptor was less than 100 nM throughout.
Consider `CCc1cnccc1-c1cccc([C@H](C)N(CCCC(=O)NCCNS(=O)(=O)NCC(=O)O)S(=O)(=O)c2cccc(Cl)c2C)c1` [Compound 38AA, (S)-2-((N-(2-(4-(3-chloro-N-(1-(3-(3-ethylpyridin-4-yl)phenyl)ethyl)-2-methylphenylsulfonamido)butanamido)ethyl)sulfamoyl)amino)acetic acid], for which the EC50 at human TGR5 receptor and on mouse TGR5 receptor was less than 100 nM each time.
On to `Cc1cnccc1-c1cccc([C@H](C)N(CCCCO)S(=O)(=O)c2cccc(Cl)c2C)c1` [Compound 39, (S)-3-chloro-N-(4-hydroxybutyl)-2-methyl-N-(1-(3-(3-methylpyridin-4-yl)phenyl)ethyl)Benzenesulfonamide], for which the EC50 at human TGR5 receptor and at mouse TGR5 receptor was less than 100 nM throughout.
As for `COc1cnccc1-c1cccc(C2CCCN2S(=O)(=O)c2cccc(C(F)(F)F)c2)c1` (stereo not shown) [Compound 40, 3-methoxy-4-(3-(1-((3-(trifluoromethyl)phenyl)sulfonyl)pyrrolidin-2-yl)phenyl)pyridine], the concentration for a half-maximal effect (EC50) was in the range of 100 to 999 nM on human TGR5 receptor and 1000 to 30000 nM at mouse TGR5 receptor.
`COc1cnccc1-c1cccc(C2CCCN2S(=O)(=O)c2ccccc2C(F)(F)F)c1` (stereo not shown) [Compound 40AA, 3-methoxy-4-(3-(1-((2-(trifluoromethyl)phenyl)sulfonyl)pyrrolidin-2-yl)phenyl)pyridine]: the concentration for a half-maximal effect (EC50) at human TGR5 receptor was less than 100 nM; at mouse TGR5 receptor, 1000 to 30000 nM.
In the same order, the values of `Cc1cnccc1-c1cccc(C2CNCCN2S(=O)(=O)c2cccc(Cl)c2C)c1` (stereo not shown) [Compound 43AE, 1-((3-chloro-2-methylphenyl)sulfonyl)-2-(3-(3-methylpyridin-4-yl)phenyl)piperazine] are 100 to 999 nM and 100 to 999 nM.
The like results for `CC(=O)N1CCN(S(=O)(=O)c2ccccc2C(F)(F)F)C(c2cccc(-c3ccncc3C)c2)C1` (stereo not shown) [Compound 45, 1-(3-(3-(3-methylpyridin-4-yl)phenyl)-4-((2-(trifluoromethyl)phenyl)sulfonyl)piperazin-1-yl)ethanone] were, in that order, 100 to 999 nM and less than 100 nM.
The like results for `CCc1cnccc1-c1cccc(C2CN(C(=O)CN(C)CC(=O)O)CCN2S(=O)(=O)c2cccc(Cl)c2C)c1` (stereo not shown) [Compound 46AC, 2-((2-(4-((3-chloro-2-methylphenyl)sulfonyl)-3-(3-(3-ethylpyridin-4-yl)phenyl)piperazin-1-yl)-2-oxoethyl)(methyl)amino)acetic acid] were, in that order, less than 100 nM and less than 100 nM.
As to `Cc1cnccc1-c1cccc(C2CN(C(=O)CCC(=O)O)CCN2S(=O)(=O)c2cccc(Cl)c2C)c1` (stereo not shown) [Compound 46AD, 4-(4-((3-chloro-2-methylphenyl)sulfonyl)-3-(3-(3-methylpyridin-4-yl)phenyl)piperazin-1-yl)-4-oxobutanoic acid], the results for the EC50 on human TGR5 receptor and at mouse TGR5 receptor were 100 to 999 nM and less than 100 nM, respectively.
The like results for `Cc1cnccc1-c1cccc(C2CN(C(=O)CCCC(=O)O)CCN2S(=O)(=O)c2cccc(Cl)c2C)c1` (stereo not shown) [Compound 46AE, 5-(4-((3-chloro-2-methylphenyl)sulfonyl)-3-(3-(3-methylpyridin-4-yl)phenyl)piperazin-1-yl)-5-oxopentanoic acid] were, in that order, less than 100 nM and less than 100 nM.
The like results for `Cc1c(Cl)cccc1S(=O)(=O)N1CCN(C(=O)CCC(=O)O)CC1c1cccc(-c2ccncc2)c1` (stereo not shown) [Compound 46AF, 4-(4-((3-chloro-2-methylphenyl)sulfonyl)-3-(3-(pyridin-4-yl)phenyl)piperazin-1-yl)-4-oxobutanoic acid] were, in that order, 1000 to 30000 nM and 1000 to 30000 nM.
Take `Cc1c(Cl)cccc1S(=O)(=O)N1CCN(C(=O)CCC(=O)O)CC1c1cccc(-c2ccncc2Cl)c1` (stereo not shown) [Compound 46AG, 4-(4-((3-chloro-2-methylphenyl)sulfonyl)-3-(3-(3-chloropyridin-4-yl)phenyl)piperazin-1-yl)-4-oxobutanoic acid]: the 50% effective concentration (EC50) at human TGR5 receptor was 100 to 999 nM; at mouse TGR5 receptor, less than 100 nM.
For the compound `COc1cnccc1-c1cccc(C2CN(C(=O)CCC(=O)O)CCN2S(=O)(=O)c2cccc(Cl)c2C)c1` (stereo not shown) [Compound 46AH, 4-(4-((3-chloro-2-methylphenyl)sulfonyl)-3-(3-(3-methoxypyridin-4-yl)phenyl)piperazin-1-yl)-4-oxobutanoic acid], the EC50 at human TGR5 receptor is 100 to 999 nM; at mouse TGR5 receptor it was less than 100 nM.
